Results taken from ChEMBL document CHEMBL1201862, “PubChem BioAssay data set” (2004).
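48-hour exposure; five concentrations; linearly interpolated endpoints. GI50 = concentration required for 50% inhibition of growth.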 Active and inactive are the calls of the source. Cut-off read from the data, not from the text of the source: active = GI50 up to about 1.1 µM and inactive = higher.

What was measured:
Assay in all cases: NCI tumour cell line growth inhibition, 48 h
SF-539 = test system: SF-539
SNB-75 = test system: SNB-75
RXF 393 = test system: RXF 393
MCF7 = test system: MCF7
PC-3 = test system: PC-3
SR = test system: SR
HCT-116 = test system: HCT-116
M14 = test system: M14
DU-145 = test system: DU-145
NCI-H23 = test system: NCI-H23
SF-268 = test system: SF-268
UACC-257 = test system: UACC-257
SK-MEL-28 = test system: SK-MEL-28
MDA-N = test system: MDA-N
OVCAR-8 = test system: OVCAR-8
HCC 2998 = test system: HCC 2998
HCT-15 = test system: HCT-15
SF-295 = test system: SF-295
SK-MEL-5 = test system: SK-MEL-5
ACHN = test system: ACHN

Row | Compound | GI50 (SF-539) | GI50 (SNB-75) | GI50 (RXF 393) | GI50 (MCF7) | GI50 (PC-3) | GI50 (SR) | GI50 (HCT-116) | GI50 (M14) | GI50 (DU-145) | GI50 (NCI-H23) | GI50 (SF-268) | GI50 (UACC-257) | GI50 (SK-MEL-28) | GI50 (MDA-N) | GI50 (OVCAR-8) | GI50 (HCC 2998) | GI50 (HCT-15) | GI50 (SF-295) | GI50 (SK-MEL-5) | GI50 (ACHN)
1 | CCOC(=O)c1c2ccccc2n2c(N)c(C(N)=O)nnc12 | 16.2 µM (inactive) | 11.7 µM (inactive) | 16.1 µM (inactive) | 17.7 µM (inactive) | 60 µM (inactive) | > 100 µM (inactive) | 31.1 µM (inactive) | > 100 µM (inactive) | > 100 µM (inactive) | 16.7 µM (inactive) | 16 µM (inactive) | 99.8 µM (inactive) | > 100 µM (inactive) | > 100 µM (inactive) | 16.1 µM (inactive) | > 100 µM (inactive) | 78.9 µM | 33.1 µM (inactive) | 74.3 µM (inactive) | 6.07 µM (inactive)
2 | CN1CN(c2ccccc2)C2(CCNCC2)C1=O | > 100 µM (inactive) | > 100 µM (inactive) | > 100 µM (inactive) | > 100 µM (inactive) | > 100 µM (inactive) | > 100 µM (inactive) | > 100 µM (inactive) | > 100 µM (inactive) | > 100 µM (inactive) | > 100 µM (inactive) | > 100 µM (inactive) | > 100 µM (inactive) | > 100 µM (inactive) | > 100 µM (inactive) | > 100 µM (inactive) | > 100 µM (inactive) | > 100 µM | > 100 µM (inactive) | > 100 µM (inactive) | > 100 µM (inactive)
3 | CCCCCCCCCC[C@H](O)[C@H]1CC[C@H]([C@H]2CC[C@H]([C@H](O)CC[C@H](O)CCCCCCC[C@@H](O)CC3=C[C@H](C)OC3=O)O2)O1 | 24 µM (inactive) | 19.1 µM (inactive) | 40 µM (inactive) | 1.52 µM (inactive) | 5.7 µM (inactive) | 9.14 µM (inactive) | < 0.01 µM (active) | 46.9 µM (inactive) | > 10 µM (inactive) | 1.82 µM (inactive) | 3.57 µM (inactive) | 1.08 µM (active) | > 10 µM (inactive) | 8.75 µM (inactive) | 85.7 µM (inactive) | > 100 µM (inactive) | 43.9 µM | 1.66 µM (inactive) | 1.41 µM (inactive) | 1.6 µM (inactive)
4 | O=c1c2c(no[n+]2[O-])c2ccccc2n1-c1ccccc1 | 8.26 µM (inactive) | 10 µM (inactive) | 6.55 µM (inactive) | 4.57 µM (inactive) | 14.3 µM (inactive) | 2.82 µM (inactive) | 2.17 µM (inactive) | 2.65 µM (inactive) | 20.4 µM (inactive) | 2.44 µM (inactive) | 8.22 µM (inactive) | 13 µM (inactive) | 5.46 µM (inactive) | 3.4 µM (inactive) | 6.18 µM (inactive) | 10.5 µM (inactive) | 2.94 µM | 14.8 µM (inactive) | 11.1 µM (inactive) | 11.4 µM (inactive)
5 | CC(C)n1c2c([n+](C)c1/C=C/c1ccccc1)C(=O)c1ccccc1C2=O | 0.0334 µM (active) | 0.419 µM (active) | 0.322 µM (active) | 0.0516 µM (active) | 0.149 µM (active) | 0.257 µM (active) | 0.0748 µM (active) | 0.318 µM (active) | 0.34 µM (active) | 0.0908 µM (active) | 0.0703 µM (active) | 0.0398 µM (active) | 0.312 µM (active) | 0.299 µM (active) | 0.07 µM (active) | 0.272 µM (active) | 3.67 µM | 0.916 µM (active) | 0.07 µM (active) | 2 µM (inactive)
6 | COc1cc(CCNC2=CC(=O)c3nc[nH]c3C2=O)ccc1O | 34.5 µM (inactive) | 19 µM (inactive) | 43.2 µM (inactive) | 17.1 µM (inactive) | 26.4 µM (inactive) | 30.7 µM (inactive) | 19.6 µM (inactive) | 17.5 µM (inactive) | 20 µM (inactive) | 20.7 µM (inactive) | 38.9 µM (inactive) | 19.8 µM (inactive) | 26.7 µM (inactive) | 18 µM (inactive) | 19.6 µM (inactive) | 20.7 µM (inactive) | 33 µM | 28.4 µM (inactive) | 14.4 µM (inactive) | 30.3 µM (inactive)
7 | C/C(=N/NC(=S)N1CCCCC1)c1ccccc1O | > 100 µM (inactive) | > 10 µM (inactive) | > 31.6 µM (inactive) | 14.3 µM (inactive) | 28.8 µM (inactive) | > 10 µM (inactive) | > 10 µM (inactive) | > 31.6 µM (inactive) | > 31.6 µM (inactive) | > 31.6 µM (inactive) | 21.5 µM (inactive) | > 31.6 µM (inactive) | > 31.6 µM (inactive) | > 31.6 µM (inactive) | > 31.6 µM (inactive) | > 31.6 µM (inactive) | > 31.6 µM | > 31.6 µM (inactive) | 60.8 µM (inactive) | > 31.6 µM (inactive)
8 | COC(=O)CCN1CCN(CCO)CC1C (stereo not given) | > 10 µM (inactive) | > 10 µM (inactive) | > 10 µM (inactive) | > 10 µM (inactive) | > 10 µM (inactive) | > 10 µM (inactive) | > 10 µM (inactive) | > 10 µM (inactive) | > 10 µM (inactive) | > 10 µM (inactive) | > 10 µM (inactive) | > 10 µM (inactive) | > 10 µM (inactive) | > 10 µM (inactive) | > 10 µM (inactive) | > 10 µM (inactive) | > 10 µM | > 10 µM (inactive) | > 10 µM (inactive) | > 10 µM (inactive)
9 | CCOP(=O)(OCC)C(c1ccccc1)N(C(=O)NC(F)(F)F)c1ccc(C)cc1 (stereo not given) | > 100 µM (inactive) | > 100 µM (inactive) | > 100 µM (inactive) | > 100 µM (inactive) | > 100 µM (inactive) | > 100 µM (inactive) | > 100 µM (inactive) | > 100 µM (inactive) | > 100 µM (inactive) | > 100 µM (inactive) | > 100 µM (inactive) | > 100 µM (inactive) | > 100 µM (inactive) | > 100 µM (inactive) | > 100 µM (inactive) | > 100 µM (inactive) | > 100 µM | > 100 µM (inactive) | > 100 µM (inactive) | > 100 µM (inactive)
10 | COc1ccc(/C=C/C(=O)NCC(NC(=O)/C=C/c2ccc(OC)c(OC)c2)C(=O)O)cc1OC (stereo not given) | > 100 µM (inactive) | > 100 µM (inactive) | > 100 µM (inactive) | > 100 µM (inactive) | > 100 µM (inactive) | > 100 µM (inactive) | > 100 µM (inactive) | > 100 µM (inactive) | > 100 µM (inactive) | > 100 µM (inactive) | > 100 µM (inactive) | > 100 µM (inactive) | > 100 µM (inactive) | > 100 µM (inactive) | > 100 µM (inactive) | > 100 µM (inactive) | < 0.01 µM | > 100 µM (inactive) | > 100 µM (inactive) | > 100 µM (inactive)
11 | O=c1cc(/N=N\c2ccc(Cl)cc2)[nH]c(=O)[nH]1 | 4.44 µM (inactive) | 14.5 µM (inactive) | 6.37 µM (inactive) | 3.97 µM (inactive) | 7.05 µM (inactive) | 1.2 µM (inactive) | 1.94 µM (inactive) | 3.95 µM (inactive) | 9.23 µM (inactive) | 7.67 µM (inactive) | 4.61 µM (inactive) | 4.83 µM (inactive) | 4.69 µM (inactive) | 4.71 µM (inactive) | 5.68 µM (inactive) | 3.78 µM (inactive) | 1.96 µM | 13.9 µM (inactive) | 10.6 µM (inactive) | 2.32 µM (inactive)
12 | CNC(=O)ON(C(C)=O)C(=O)NC [CARACEMIDE] | 64.4 µM (inactive) | 70.3 µM (inactive) | 34.3 µM (inactive) | 51.5 µM (inactive) | 26.5 µM (inactive) | 28.1 µM (inactive) | 45 µM (inactive) | 9.55 µM (inactive) | 41.3 µM (inactive) | 41.8 µM (inactive) | 75 µM (inactive) | 69.5 µM (inactive) | 69.5 µM (inactive) | 15.8 µM (inactive) | 78.3 µM (inactive) | > 100 µM (inactive) | 31 µM | 115 µM (inactive) | 40.3 µM (inactive) | 18.7 µM (inactive)
13 | NC(=S)N/N=C/c1ncccc1N [TRIAPINE] | 0.239 µM (active) | 0.773 µM (active) | 1.07 µM (active) | 0.452 µM (active) | 1.57 µM (inactive) | 0.403 µM (active) | 0.986 µM (active) | 0.583 µM (active) | 0.681 µM (active) | 0.332 µM (active) | 0.925 µM (active) | > 6.65 µM (inactive) | > 10 µM (inactive) | 2.65 µM (inactive) | 0.568 µM (active) | 1.62 µM (inactive) | 1.97 µM | 1.21 µM (inactive) | 0.968 µM (active) | 0.282 µM (active)
